Laboratory results published in patent publication US20230390243A1, “Compositions and Uses Thereof” (Purposeful IKE, priority 2020, published 2023).
Values joined by “and” are separate entries in the source; they are usually repeats but may differ in a detail not shown here. Equal values may be shown once. Read-outs that look alike come from different tables or passages of the source.

Tests used:
Fmr1 KO mice [1] = assay: Open field test (hyperactivity); type: in vivo; set-up: unit not given here; details: for Mean 2 (group mean), Open Field: KO group mean, n 10
Experimental: (§1) Fmr1 KO mice backcrossed to the FVB strain and WT littermates were used during experiments. TransnetXY Automated Genotyping (www.transnetyx.com/). TRANSNETYX, INC., 8110 Cordova Rd. Suite 119, Cordova, TN 38016, USA was used for genotyping. The animals were pretreated for 14 days. The active ingredients of Sumatriptan and Ergoloid were in a water carrier, whereas oxitriptan was in a methanol carrier.
(§2) The mice were housed in plastic cages (35×30×12 cm), 5 in each. The room temperature (21±2° C.),relative humidity (55±5%), a 12-h light-dark cycle (lights on 7 a.m.-7 p.m.) and air exchange (16 times per h) were automatically controlled. The animals had free access to commercial food pellets and water. Testing was conducted during the light phase. Ten mice per treatment group were used for the AGS experiments. Experiments were conducted in line with the requirements of the UK Animals (Scientific Procedures) Act, 1986.
(§3) All experiments were conducted with the experimenter blind to genotype and drug treatment. Separate investigators prepared and coded dosing solutions, allocated the mice to the study treatment groups, dosed the animals, and collected the Audiogenic Seizure data.
(§4) Behavior testing was conducted at 2 weeks. The behavioral tests were as follows: 1. Hyperactivity: Open field; 2. Stereotypy: Self-grooming; 3. Sociability: Three chamber partition test; 4. Memory and Learning: Novel Object Recognition; 5. Anxiety: hyponeophagia; and 6. Test of daily living: marble burying
For hyperactivity, the open field test (OFT) is a common measure of exploratory behavior and general activity in both mice and rats, where both the quality and quantity of the activity can be measured. Principally, the open field (OF) is an enclosure, generally square, rectangular, or circular in shape with surrounding walls that prevent escape. The OFT is also commonly used as a mechanism to assess the sedative, toxic, or stimulant effects of compounds (Gould 2009).
(§5) The treatment of the mice with OX (Oxitriptan), SU (Sumatriptan), ER (Ergoloid mesylates) were according to the matrix shown below in Table 1.

Fmr1 KO mice [2] = assay: Anxiety: hyponeophagia test; type: in vivo; set-up: unit not given here; details: for Mean Diff. (KO-V vs. group), Hyponeophagia: Dunnett's test against KO-V, Ergoloid 2 + Oxitriptan 40 mg/kg; for Mean 2 (group mean), Hyponeophagia: KO group mean, n 10
Experimental: as §1, §2, §3, §4
For anxiety a hyponeophagia test was conducted. Mice and rats cannot vomit, due to the tightness of the cardiac sphincter of the stomach, so to overcome the problem of potential food toxicity they have evolved a strategy of first ingesting only very small amounts of novel substances. The amounts ingested then gradually increase until the animal has determined whether the substance is safe and nutritious. So the old rat-catchers would first put a palatable substance such as oatmeal, which was to be the vehicle for the toxin, in the infested area (Deacon 2011).
as §5

Fmr1 KO mice [3] = assay: Memory and learning: Novel Object Recognition (NOR); type: in vivo; set-up: unit not given here; details: for Mean 2 (group mean), NOR: table against N_WT-V (mean 13.90), doses as E10; for Mean Diff. (N_WT-V vs. group), NOR: Dunnett's test against N_WT-V, Ergoloid 2 + Sumatriptan 10, Ergoloid 2 + Oxitriptan 40 mg/kg
Experimental: as §1, §2, §3, §4
For memory and learning, a novel object recognition (NOR) task was used to evaluate the rodents' ability to recognize a novel object in the environment. […] The task procedure consists of three phases: habituation, familiarization, and test phase (Antunes 2012).
as §5

Fmr1 KO mice [4] = assay: Test of daily living (marble burying / nesting); type: in vivo; set-up: scale not given here; details: for Mean Diff. (KO-V vs. group), Test of daily living: Dunnett's test against KO-V, Ergoloid 2 + Oxitriptan 40 mg/kg; for Mean Diff. (KO-V vs. group), Test of daily living / Mean Diff. (WT-V vs. group), Test of daily living: Sumatriptan 20, Oxitriptan 40, Ergoloid 4 mg/kg; for Mean Diff. (WT-V vs. group), Test of daily living: Dunnett's test against WT-V, Column F Ergoloid 2 + Sumatriptan 10, Column G Ergoloid 2 + Oxitriptan 40 mg/kg; for Mean 2 (group mean), Test of daily living: KO group mean, n 10
Experimental: as §1, §2, §3, §4
For test of daily living, nesting was assessed as nest building is an innate behavior in rodents, even when raised in laboratory settings. Synthetic and/or natural materials (such as twine, tissue, cotton, paper, and hay) are provided as a gauge of their overall well-being and as an ancillary assessment to predict the possible decline in cognition. Typically, changes in nesting behaviors, such as failure to create a nest, indicate a change in health or welfare. In addition, nesting behavior is sensitive to many environmental and physiological challenges, as well as many genetic mutations underlying pathological disease states (Gaskill 2013).
as §5

Fmr1 KO mice [5] = assay: Stereotypy: self-grooming; type: in vivo; set-up: unit not given here; details: for Mean Diff. (KO-V vs. group), Stereotypy: Dunnett's test against KO-V; for Mean Diff. (KO-V vs. group), Stereotypy / Data table Stereotypy (individual animals): Sumatriptan 20, Oxitriptan 40, Ergoloid 4 mg/kg, Ergoloid 2 + Oxitriptan 40 mg/kg; for Data table Stereotypy (individual animals): KO mice, one value per animal
Experimental: as §1, §2, §3, §4
For stereotypy, self-grooming was assessed. Self-grooming in animals is an innate behaviour that is involved in hygiene maintenance and other physiologically important processes, including thermoregulation, social communication and de-arousal. It is one of the most frequently observed behaviours in awake rodents and has a patterned, sequential organization with characteristic cephalocaudal progression (Kalueff 2016).
as §5

Fmr1 KO mice [6] = assay: Sociability: three chamber partition test; type: in vivo; set-up: unit not given here; details: for Mean 2 (F_ group mean), Sociability / Mean Diff. (F_KO-V vs. F_ group), Sociability: F_ values; for Mean 2 (F_ group mean), Sociability / Mean 2 (N_ group mean), Sociability / Mean 2 (group mean), Sociability: KO group mean; for Mean 2 (F_ group mean), Sociability / Mean 2 (N_ group mean), Sociability: table against F_KO-V; for Mean 2 (F_ group mean), Sociability: doses as E34; for Mean Diff. (F_KO-V vs. F_ group), Sociability: Ergoloid 2 + Oxitriptan 40 mg/kg; for Mean 2 (N_ group mean), Sociability: doses as E37; for Mean 2 (group mean), Sociability: table against N_WT-V (mean 99.10), doses as E13; for Mean Diff. (N_WT-V vs. group), Sociability: Dunnett's test against N_WT-V, Ergoloid 2 + Sumatriptan 10, Ergoloid 2 + Oxitriptan 40 mg/kg
Experimental: as §1, §2, §3, §4
For sociability a three chamber partition test was utilized. The three-chamber paradigm test known as Crawley's sociability and preference for social novelty protocol has previously been successfully employed to study social affiliation and social memory in several inbred and mutant mouse lines. The main principle of the test was based on the free choice by a subject mouse to spend time in any of three box's compartments during two experimental sessions, including indirect contact with one or two mice with which it was unfamiliar (Kaidanovich-Beilin 2011).
as §5

[7] = test system: patients with autism or Asperger's disorder; details: versus placebo; cited from earlier work
FMR1 mice = assay: Behavioral experiments, FXS phenotypes overall; type: in vivo; details: summary statement
Experimental: as §1, §4, §5

[8] = cited from earlier work
[9] = table against KO-V (mean 8263), doses as E16
[10] = table against WT-V (mean 4207), doses as E1
[11] = Sumatriptan 20, Oxitriptan 40, Ergoloid 4 mg/kg
[12] = Fmr1 KO mice, Oxitriptan 40 mg/kg, individual animals
[13] = table against KO-V (mean 237.3), doses as E22
[14] = table against WT-V (mean 145.5), doses as E4
[15] = Fmr1 KO mice, Oxitriptan 40 mg/kg, F column, individual animals
[16] = N_ values, Sumatriptan 20, Oxitriptan 40, Ergoloid 4 mg/kg
[17] = table against KO-V (mean 1.200), doses as E25
[18] = table against WT-V (mean 4.800), doses as E7
[19] = Dunnett's test against F_KO-V, Sumatriptan 20, Oxitriptan 40, Ergoloid 4 mg/kg
[20] = Fmr1 KO mice, Sumatriptan 20 mg/kg, individual animals
[21] = Fmr1 KO mice, Sumatriptan 20 mg/kg, F column, individual animals
[22] = N_ values, Dunnett's test against F_KO-V, Sumatriptan 20, Oxitriptan 40, Ergoloid 4 mg/kg, Column N Ergoloid 2 + Oxitriptan 40 mg/kg

Row | SMILES | Mean 2 (group mean), Open Field (Fmr1 KO mice [1]; [9]) | Mean 2 (group mean), Open Field (Fmr1 KO mice [1]; [10]) | Mean Diff. (KO-V vs. group), Hyponeophagia (Fmr1 KO mice [2]; [11]) | Mean 2 (group mean), Hyponeophagia (Fmr1 KO mice [2]; [13]) | Mean 2 (group mean), Hyponeophagia (Fmr1 KO mice [2]; [14]) | Mean 2 (group mean), NOR (Fmr1 KO mice [3]; N_ values, KO group mean) | Mean Diff. (N_WT-V vs. group), NOR (Fmr1 KO mice [3]; [16]) | Mean Diff. (KO-V vs. group), Test of daily living (Fmr1 KO mice [4]) | Mean Diff. (WT-V vs. group), Test of daily living (Fmr1 KO mice [4]) | Mean 2 (group mean), Test of daily living (Fmr1 KO mice [4]; [17]) | Mean 2 (group mean), Test of daily living (Fmr1 KO mice [4]; [18]) | Mean Diff. (KO-V vs. group), Stereotypy (Fmr1 KO mice [5]) | Data table Stereotypy (individual animals) (Fmr1 KO mice [5]) | Mean 2 (F_ group mean), Sociability (Fmr1 KO mice [6]) | Mean Diff. (F_KO-V vs. F_ group), Sociability (Fmr1 KO mice [6]; [19]) | Mean 2 (N_ group mean), Sociability (Fmr1 KO mice [6]; N_ values) | Mean 2 (group mean), Sociability (Fmr1 KO mice [6]; N_ values) | Mean Diff. (N_WT-V vs. group), Sociability (Fmr1 KO mice [6]; [16]) | further results
1 | N[C@@H](Cc1c[nH]c2ccc(O)cc12)C(=O)O [Oxitriptan] | 4720 | 4720 | 91.10 | 146.2 | 146.2 | 10.82 | 3.082 | −3.700 | −0.1000 | 4.800 | 4.900 | 10.10 | 34 and 37 (2×) and 40 and 36 and 38 (2×) and 33 and 31 and 29 | 52.10 | 29.50 | 98.80 | 96.80 | 0.3000 | Mean Diff. (KO-V vs. group), Open Field (Fmr1 KO mice [1]; Dunnett's test against KO-V, Sumatriptan 20, Oxitriptan 80, Ergoloid 4 mg/kg, Ergoloid 2 + Oxitriptan 40 mg/kg): 3543; Mean Diff. (WT-V vs. group), Hyponeophagia (Fmr1 KO mice [2]; Dunnett's test against WT-V, Sumatriptan 20, Oxitriptan 40, Ergoloid 4 mg/kg, Column F Ergoloid 2 + Sumatriptan 10, Column G Ergoloid 2 + Oxitriptan 40 mg/kg): −0.7000; Hyponeophagia, KO-Oxitriptan (Fmr1 KO mice [2]; [12]): 151 and 145 and 150 and 140 (2×) and 147 and 143 and 152 and 148 and 146; Novel Object Recognition, F_KO-Oxitriptan (Fmr1 KO mice [3]; [15]): 6 (4×) and 5 (3×) and 9 (2×) and 8 (2×); Novel Object Recognition, N_KO-Oxitriptan (Fmr1 KO mice [3]; [12]): 10 (4×) and 12 and 14 and 8 (2×) and 15 and 13 and 9; Mean 2 (N_ group mean), NOR (Fmr1 KO mice [3]; N_ values, KO group mean, table against F_KO-V, doses as E31): 10.82; Tests of daily living, KO-Oxitriptan (Fmr1 KO mice [4]; [12]): 5 (9×) and 4; Mean 2 (group mean), Stereotypy (Fmr1 KO mice [5]; KO group mean, n 10, table against KO-V (mean 45.40), doses as E19): 35.30; Sociability, F_KO-Oxitriptan (Fmr1 KO mice [6]; [15]): 54 and 52 (2×) and 50 (2×) and 53 (2×) and 51 and 55; Sociability, N_KO-Oxitriptan (Fmr1 KO mice [6]; [12]): 104 and 98 (2×) and 97 (2×) and 100 (2×) and 99 (2×) and 96
2 | CNS(=O)(=O)Cc1ccc2[nH]cc(CCN(C)C)c2c1 [Sumatriptan, 1-[3-[2-(dimethylamino)ethyl]-1H-indol-5-yl]-N-methylmethanesulfonamide] | 7416 | 7416 | 82.60 | 154.7 | 154.7 | 7.300 | 6.600 | −3.500 | 0.1000 | 4.700 | 4.700 | 14.60 | 29 and 35 and 31 (2×) and 30 (3×) and 32 and 28 and 33 | 62.20 | 19.40 | 98.20 | 98.20 | 0.9000 | Mean Diff. (WT-V vs. group), Open Field (Fmr1 KO mice [1]; Dunnett's test against WT-V, Sumatriptan 20 mg/kg, 5-HTP 80 mg/kg, EM 4 mg/kg, Column F Ergoloid 2 + Sumatriptan 10 mg/kg, Ergoloid 2 + Oxitriptan 40 mg/kg): −3209; Hyponeophagia, KO-Sumatriptan (Fmr1 KO mice [2]; [20]): 154 (2×) and 157 (2×) and 148 and 153 and 155 and 158 and 159 and 152; GH response to sumatriptan [7]: significantly greater than to placebo; effect on FXS phenotypes (FMR1 mice): ameliorates the FXS phenotypes in FMR1 mice; Mean Diff. (F_KO-V vs. F_ group), NOR (Fmr1 KO mice [3]; F_ values, Dunnett's test against F_KO-V, Sumatriptan 20, Oxitriptan 40, Ergoloid 4 mg/kg, Ergoloid 2 + Oxitriptan 40 mg/kg): −0.2000; Novel Object Recognition, F_KO-Sumatriptan (Fmr1 KO mice [3]; [21]): 9 (2×) and 5 (2×) and 8 (2×) and 7 (2×) and 4 and 6; Novel Object Recognition, N_KO-Sumatriptan (Fmr1 KO mice [3]; [20]): 6 (2×) and 8 (2×) and 9 (3×) and 5 and 7; Mean Diff. (F_KO-V vs. N_ group), NOR (Fmr1 KO mice [3]; [22]): −0.7000; Tests of daily living, KO-Sumatriptan (Fmr1 KO mice [4]; [20]): 5 (7×) and 4 (3×); half life ([8]; administered orally): 1.7 h; half life ([8]; administered subcutaneous): 1.9 h; Sociability, F_KO-Sumatriptan (Fmr1 KO mice [6]; [21]): 61 (2×) and 64 and 65 (2×) and 60 (3×) and 63 (2×); Sociability, N_KO-Sumatriptan (Fmr1 KO mice [6]; [20]): 99 and 97 (2×) and 103 and 98 and 90 and 102 and 100 and 95 and 101; Mean Diff. (F_KO-V vs. N_ group), Sociability (Fmr1 KO mice [6]; [22]): −18.80
